In patent US10738030B2, “Modulators of cystic fibrosis transmembrane conductance regulator” (Vertex Pharmaceuticals Incorporated, priority 2016, dated 2020):
pEC50: −log10 of the molar value.

Biological target: T1, F508del (Homo sapiens, UniProt P13569, DEL508-508)
T1 construct: expressed in transfected cells
Assay: Membrane potential optical assay (FRET voltage-sensor dyes), identification of correction compounds
Format: cell-based
Settings: NIH3T3 cells stably expressing F508del, procedures described above; for Emax: maximum efficacy, read-out: Max Efficacy; for pEC50: modulation of CFTR activity
Description: (§1) NIH3T3 mouse fibroblasts stably expressing F508del are used for optical measurements of membrane potential. The cells are maintained at 37° C. in 5% CO2 and 90% humidity in Dulbecco's modified Eagle's medium supplemented with 2 mM glutamine, 10% fetal bovine serum, 1×NEAA, β-ME, 1× pen/strep, and 25 mM HEPES in 175 cm^2 culture flasks. For all optical assays, the cells were seeded at 12,000 cells/well in 384-well matrigel-coated plates and cultured for 18-24 hrs at 37° C. for the potentiator assay. For the correction assays, the cells are cultured at 37° C. with and without compounds for 18-24 hours.
Membrane potential optical methods for assaying F508del modulation properties of compounds.
The optical membrane potential assay utilized voltage-sensitive FRET sensors described by Gonzalez and Tsien (See Gonzalez, J. E. and R. Y. Tsien (1995) “Voltage sensing by fluorescence resonance energy transfer in single cells” Biophys J 69(4): 1272-80, and Gonzalez, J. E. and R. Y. Tsien (1997) “Improved indicators of cell membrane potential that use fluorescence resonance energy transfer” Chem Biol 4(4): 269-77) in combination with instrumentation for measuring fluorescence changes such as the Voltage/Ion Probe Reader (VIPR) (See, Gonzalez, J. E., K. Oades, et al. (1999) “Cell-based assays and instrumentation for screening ion-channel targets” Drug Discov Today 4(9): 431-439).
These voltage sensitive assays are based on the change in fluorescence resonant energy transfer (FRET) between the membrane-soluble, voltage-sensitive dye, DiSBAC2(3), and a fluorescent phospholipid, CC2-DMPE, which is attached to the outer leaflet of the plasma membrane and acts as a FRET donor. Changes in membrane potential (Vm) cause the negatively charged DiSBAC2(3) to redistribute across the plasma membrane and the amount of energy transfer from CC2-DMPE changes accordingly. The changes in fluorescence emission were monitored using VIPR™ II, which is an integrated liquid handler and fluorescent detector designed to conduct cell-based screens in 96- or 384-well microtiter plates.
To identify small molecules that correct the trafficking defect associated with F508del; a single-addition HTS assay format was developed. The cells were incubated in serum-free medium for 16 hrs at 37° C. in the presence or absence (negative control) of test compound. As a positive control, cells plated in 384-well plates were incubated for 16 hrs at 27° C. to “temperature-correct” F508del. The cells were subsequently rinsed 3× with Krebs Ringers solution and loaded with the voltage-sensitive dyes. To activate F508del, 10 μM forskolin and the CFTR potentiator, genistein (20 μM), were added along with Cl^−-free medium to each well. The addition of Cl^−-free medium promoted Cl^− efflux in response to F508del activation and the resulting membrane depolarization was optically monitored using the FRET-based voltage-sensor dyes.
• Bath Solution #1: (in mM) NaCl 160, KCl 4.5, CaCl2 2, MgCl2 1, HEPES 10, pH 7.4 with NaOH. • Chloride-free bath solution: Chloride salts in Bath Solution #1 (above) are substituted with gluconate salts. • CC2-DMPE: Prepared as a 10 mM stock solution in DMSO and stored at −20° C. • DiSBAC2(3): Prepared as a 10 mM stock in DMSO and stored at −20° C. Cell Culture
as §1, with “seeded at 30,000/well in 384-well” for “seeded at 12,000 cells/well in 384-well”, “cultured for 2 hrs at” for “cultured for 18-24 hrs at”, “37° C. before culturing at 27° C. for 24 hrs for the” for “37° C. for the”, “cultured at 27° C. or 37° C.” for “cultured at 37° C.”, “compounds for 16-24 hours.” for “compounds for 18-24 hours.”

T1 sequence (P13569 with tags, fused parts or gaps DEL508-508): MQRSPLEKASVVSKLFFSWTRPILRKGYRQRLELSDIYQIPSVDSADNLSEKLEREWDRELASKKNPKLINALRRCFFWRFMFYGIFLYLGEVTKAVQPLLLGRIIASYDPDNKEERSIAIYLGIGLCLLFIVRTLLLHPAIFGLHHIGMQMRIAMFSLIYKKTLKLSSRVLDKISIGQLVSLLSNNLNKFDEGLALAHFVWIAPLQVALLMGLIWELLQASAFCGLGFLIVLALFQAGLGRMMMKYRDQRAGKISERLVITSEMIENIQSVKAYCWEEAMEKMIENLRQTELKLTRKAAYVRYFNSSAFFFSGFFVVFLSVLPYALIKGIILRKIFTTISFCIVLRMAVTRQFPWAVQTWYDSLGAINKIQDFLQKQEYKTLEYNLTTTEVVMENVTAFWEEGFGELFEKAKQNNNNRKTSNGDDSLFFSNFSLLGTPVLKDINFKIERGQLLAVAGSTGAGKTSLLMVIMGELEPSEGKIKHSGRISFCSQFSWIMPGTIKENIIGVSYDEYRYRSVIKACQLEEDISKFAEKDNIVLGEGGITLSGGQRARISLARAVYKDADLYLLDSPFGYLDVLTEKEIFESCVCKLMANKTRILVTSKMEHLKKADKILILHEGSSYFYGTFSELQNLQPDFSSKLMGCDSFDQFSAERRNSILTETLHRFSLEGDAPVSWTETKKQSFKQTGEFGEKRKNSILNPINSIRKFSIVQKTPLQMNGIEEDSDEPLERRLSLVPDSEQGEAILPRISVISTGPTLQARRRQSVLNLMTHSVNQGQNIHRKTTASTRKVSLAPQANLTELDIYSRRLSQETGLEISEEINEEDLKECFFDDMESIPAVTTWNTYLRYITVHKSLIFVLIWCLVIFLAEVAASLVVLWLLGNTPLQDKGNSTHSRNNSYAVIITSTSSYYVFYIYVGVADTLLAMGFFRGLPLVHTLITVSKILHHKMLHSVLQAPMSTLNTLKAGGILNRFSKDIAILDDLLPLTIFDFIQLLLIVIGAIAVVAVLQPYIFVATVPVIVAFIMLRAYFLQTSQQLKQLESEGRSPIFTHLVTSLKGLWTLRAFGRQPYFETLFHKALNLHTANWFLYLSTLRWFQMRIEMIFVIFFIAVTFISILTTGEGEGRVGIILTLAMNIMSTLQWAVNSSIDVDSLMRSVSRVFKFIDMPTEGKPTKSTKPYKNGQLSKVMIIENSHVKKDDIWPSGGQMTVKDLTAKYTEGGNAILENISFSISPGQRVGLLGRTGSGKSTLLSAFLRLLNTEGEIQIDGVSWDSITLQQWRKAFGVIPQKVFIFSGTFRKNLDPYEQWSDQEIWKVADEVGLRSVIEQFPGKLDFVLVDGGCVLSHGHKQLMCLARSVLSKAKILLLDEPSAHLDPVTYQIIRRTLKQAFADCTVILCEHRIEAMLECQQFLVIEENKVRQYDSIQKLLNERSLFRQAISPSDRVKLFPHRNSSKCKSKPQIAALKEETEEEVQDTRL

SMILES | Emax [%] | pEC50
COCC(C)Oc1nc(-c2cc(F)cc(OCC(C)C)c2)ccc1C(=O)NS(=O)(=O)c1cccc(N)n1 (centres unmarked) [Compound 23, N-[(6-amino-2-pyridyl)sulfonyl]-6-(3-fluoro-5-isobutoxy-phenyl)-2-(2-methoxy-1-methyl-ethoxy)pyridine-3-carboxamide] | 30 to 80 | 5.00 to 5.52
CC(C)COc1cc(F)cc(-c2ccc(C(=O)NS(=O)(=O)c3cccc(N)n3)c(OC(C)CC(C)C)n2)c1 (centres unmarked) [Compound 24, N-[(6-amino-2-pyridyl)sulfonyl]-2-(1,3-dimethylbutoxy)-6-(3-fluoro-5-isobutoxy-phenyl)pyridine-3-carboxamide] | > 80 | > 5.52
CC(C)COc1cc(F)cc(-c2ccc(C(=O)NS(=O)(=O)c3cccc(N)n3)c(OC(C)C(C)(C)C)n2)c1 (centres unmarked) [Compound 25, N-[(6-amino-2-pyridyl)sulfonyl]-6-(3-fluoro-5-isobutoxy-phenyl)-2-(1,2,2-trimethylpropoxy)pyridine-3-carboxamide] | 30 to 80 | > 5.52
CC(C)COc1cc(F)cc(-c2ccc(C(=O)NS(=O)(=O)c3cccc(N)n3)c(OC(C(C)C)C(C)C)n2)c1 [Compound 26, N-[(6-amino-2-pyridyl)sulfonyl]-6-(3-fluoro-5-isobutoxy-phenyl)-2-(1-isopropyl-2-methyl-propoxy)pyridine-3-carboxamide] | 30 to 80 | > 5.52
CCCOc1nc(-c2cc(F)cc(OCC(C)C)c2)ccc1C(=O)NS(=O)(=O)c1cccc(N)n1 [Compound 27, N-[(6-amino-2-pyridyl)sulfonyl]-6-(3-fluoro-5-isobutoxy-phenyl)-2-propoxy-pyridine-3-carboxamide] | > 80 | > 5.52
C/C=C/COc1nc(-c2cc(F)cc(OCC(C)C)c2)ccc1C(=O)NS(=O)(=O)c1cccc(N)n1 [Compound 28, N-[(6-amino-2-pyridyl)sulfonyl]-2-[(E)-but-2-enoxy]-6-(3-fluoro-5-isobutoxy-phenyl)pyridine-3-carboxamide] | 30 to 80 | > 5.52
CC[C@H](C)Oc1nc(-c2cc(F)cc(OCC(C)C)c2)ccc1C(=O)NS(=O)(=O)c1cccc(N)n1 [Compound 29, N-[(6-amino-2-pyridyl)sulfonyl]-6-(3-fluoro-5-isobutoxy-phenyl)-2-[(1S)-1-methylpropoxy]pyridine-3-carboxamide] | 30 to 80 | > 5.52
CCOc1nc(-c2cc(F)cc(OCC(C)C)c2)ccc1C(=O)NS(=O)(=O)c1cccc(N)n1 [Compound 30, N-[(6-amino-2-pyridyl)sulfonyl]-2-ethoxy-6-(3-fluoro-5-isobutoxy-phenyl)pyridine-3-carboxamide] | 30 to 80 | > 5.52
CC(C)COc1cc(F)cc(-c2ccc(C(=O)NS(=O)(=O)c3cccc(N)n3)c(N(C)C(C)C)n2)c1 [Compound 31, N-[(6-amino-2-pyridyl)sulfonyl]-6-(3-fluoro-5-isobutoxy-phenyl)-2-[isopropyl(methyl)amino]pyridine-3-carboxamide] | > 80 | > 5.52
CC(C)COc1cc(F)cc(-c2ccc(C(=O)NS(=O)(=O)c3cccc(N)n3)c(OCC(C)(C)C)n2)c1 [Compound 32, N-[(6-amino-2-pyridyl)sulfonyl]-2-(2,2-dimethylpropoxy)-6-(3-fluoro-5-isobutoxy-phenyl)pyridine-3-carboxamide] | > 80 | > 5.52
CC(C)COc1cc(F)cc(-c2ccc(C(=O)NS(=O)(=O)c3cccc(N)n3)c(OC(C(F)(F)F)C(F)(F)F)n2)c1 [Compound 33, N-[(6-amino-2-pyridyl)sulfonyl]-6-(3-fluoro-5-isobutoxy-phenyl)-2-[2,2,2-trifluoro-1-(trifluoromethyl)ethoxy]pyridine-3-carboxamide] | 30 to 80 | > 5.52
CCC(Oc1nc(-c2cc(F)cc(OCC(C)C)c2)ccc1C(=O)NS(=O)(=O)c1cccc(N)n1)C(C)(C)C (centres unmarked) [Compound 34] | > 80 | > 5.52
CC#CCCOc1nc(-c2cc(F)cc(OCC(C)C)c2)ccc1C(=O)NS(=O)(=O)c1cccc(N)n1 [Compound 35, N-[(6-amino-2-pyridyl)sulfonyl]-6-(3-fluoro-5-isobutoxy-phenyl)-2-pent-3-ynoxy-pyridine-3-carboxamide] | 30 to 80 | > 5.52
CC(C)COc1cc(F)cc(-c2ccc(C(=O)NS(=O)(=O)c3cccc(N)n3)c(OC(C)CC(C)(C)C)n2)c1 (centres unmarked) [Compound 36, N-[(6-amino-2-pyridyl)sulfonyl]-6-(3-fluoro-5-isobutoxy-phenyl)-2-(1,3,3-trimethylbutoxy)pyridine-3-carboxamide] | 30 to 80 | > 5.52
CC(C)=C(C)c1nc(-c2cc(F)cc(OCC(C)C)c2)ccc1C(=O)NS(=O)(=O)c1cccc(N)n1 [Compound 37, N-[(6-amino-2-pyridyl)sulfonyl]-2-(1,2-dimethylprop-1-enyl)-6-(3-fluoro-5-isobutoxy-phenyl)pyridine-3-carboxamide] | 30 to 80 | > 5.52
CC(C)COc1cc(F)cc(-c2ccc(C(=O)NS(=O)(=O)c3cccc(N)n3)c(OCC(F)F)n2)c1 [Compound 38, N-[(6-amino-2-pyridyl)sulfonyl]-2-(2,2-difluoroethoxy)-6-(3-fluoro-5-isobutoxy-phenyl)pyridine-3-carboxamide] | 30 to 80 | 5.00 to 5.52
CCCNc1cccc(S(=O)(=O)NC(=O)c2ccc(-c3cc(F)cc(OCC(C)C)c3)nc2NCCC)n1 [Compound 39, 6-(3-fluoro-5-isobutoxy-phenyl)-2-(propylamino)-N-[[6-(propylamino)-2-pyridyl]sulfonyl]pyridine-3-carboxamide] | 30 to 80 | > 5.52
CCC(Oc1nc(-c2cc(F)cc(OCC(C)C)c2)ccc1C(=O)NS(=O)(=O)c1cccc(N)n1)C(C)C (centres unmarked) [Compound 40, N-[(6-amino-2-pyridyl)sulfonyl]-2-(1-ethyl-2-methyl-propoxy)-6-(3-fluoro-5-isobutoxy-phenyl)pyridine-3-carboxamide] | 30 to 80 | > 5.52
CC(C)COc1cc(F)cc(-c2ccc(C(=O)NS(=O)(=O)c3cccc(N)n3)c(N(C(C)C)C(C)C)n2)c1 [Compound 41, N-[(6-amino-2-pyridyl)sulfonyl]-2-(diisopropylamino)-6-(3-fluoro-5-isobutoxy-phenyl)pyridine-3-carboxamide] | > 80 | > 5.52
C=CC(C)Oc1nc(-c2cc(F)cc(OCC(C)C)c2)ccc1C(=O)NS(=O)(=O)c1cccc(N)n1 (centres unmarked) [Compound 42, N-[(6-amino-2-pyridyl)sulfonyl]-6-(3-fluoro-5-isobutoxy-phenyl)-2-(1-methylallyloxy)pyridine-3-carboxamide] | > 80 | > 5.52
C=CCOc1nc(-c2cc(F)cc(OCC(C)C)c2)ccc1C(=O)NS(=O)(=O)c1cccc(N)n1 [Compound 43, 2-allyloxy-N-[(6-amino-2-pyridyl)sulfonyl]-6-(3-fluoro-5-isobutoxy-phenyl)pyridine-3-carboxamide] | 30 to 80 | > 5.52
CCC(C)(C)Oc1nc(-c2cc(F)cc(OCC(C)C)c2)ccc1C(=O)NS(=O)(=O)c1cccc(N)n1 [Compound 44, N-[(6-amino-2-pyridyl)sulfonyl]-2-(1,1-dimethylpropoxy)-6-(3-fluoro-5-isobutoxy-phenyl)pyridine-3-carboxamide] | > 80 | > 5.52
